# Patent US10829501B2 (BRISTOL-MYERS SQUIBB COMPANY, priority 2016, dated 2020)
# Biological target: ROCK2 (Homo sapiens, UniProt O75116)
# Test: ROCK2 kinase inhibition assay (LABCHIP 3000 Reader, FITC peptide substrate);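 also: rho kinase reaction read by separating phosphorylated from unphosphorylated peptide on chip, with inhibition of kinase activity computed per concentration across a dose-response series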
# Sequence of ROCK2 (O75116 whole entry, species assumed): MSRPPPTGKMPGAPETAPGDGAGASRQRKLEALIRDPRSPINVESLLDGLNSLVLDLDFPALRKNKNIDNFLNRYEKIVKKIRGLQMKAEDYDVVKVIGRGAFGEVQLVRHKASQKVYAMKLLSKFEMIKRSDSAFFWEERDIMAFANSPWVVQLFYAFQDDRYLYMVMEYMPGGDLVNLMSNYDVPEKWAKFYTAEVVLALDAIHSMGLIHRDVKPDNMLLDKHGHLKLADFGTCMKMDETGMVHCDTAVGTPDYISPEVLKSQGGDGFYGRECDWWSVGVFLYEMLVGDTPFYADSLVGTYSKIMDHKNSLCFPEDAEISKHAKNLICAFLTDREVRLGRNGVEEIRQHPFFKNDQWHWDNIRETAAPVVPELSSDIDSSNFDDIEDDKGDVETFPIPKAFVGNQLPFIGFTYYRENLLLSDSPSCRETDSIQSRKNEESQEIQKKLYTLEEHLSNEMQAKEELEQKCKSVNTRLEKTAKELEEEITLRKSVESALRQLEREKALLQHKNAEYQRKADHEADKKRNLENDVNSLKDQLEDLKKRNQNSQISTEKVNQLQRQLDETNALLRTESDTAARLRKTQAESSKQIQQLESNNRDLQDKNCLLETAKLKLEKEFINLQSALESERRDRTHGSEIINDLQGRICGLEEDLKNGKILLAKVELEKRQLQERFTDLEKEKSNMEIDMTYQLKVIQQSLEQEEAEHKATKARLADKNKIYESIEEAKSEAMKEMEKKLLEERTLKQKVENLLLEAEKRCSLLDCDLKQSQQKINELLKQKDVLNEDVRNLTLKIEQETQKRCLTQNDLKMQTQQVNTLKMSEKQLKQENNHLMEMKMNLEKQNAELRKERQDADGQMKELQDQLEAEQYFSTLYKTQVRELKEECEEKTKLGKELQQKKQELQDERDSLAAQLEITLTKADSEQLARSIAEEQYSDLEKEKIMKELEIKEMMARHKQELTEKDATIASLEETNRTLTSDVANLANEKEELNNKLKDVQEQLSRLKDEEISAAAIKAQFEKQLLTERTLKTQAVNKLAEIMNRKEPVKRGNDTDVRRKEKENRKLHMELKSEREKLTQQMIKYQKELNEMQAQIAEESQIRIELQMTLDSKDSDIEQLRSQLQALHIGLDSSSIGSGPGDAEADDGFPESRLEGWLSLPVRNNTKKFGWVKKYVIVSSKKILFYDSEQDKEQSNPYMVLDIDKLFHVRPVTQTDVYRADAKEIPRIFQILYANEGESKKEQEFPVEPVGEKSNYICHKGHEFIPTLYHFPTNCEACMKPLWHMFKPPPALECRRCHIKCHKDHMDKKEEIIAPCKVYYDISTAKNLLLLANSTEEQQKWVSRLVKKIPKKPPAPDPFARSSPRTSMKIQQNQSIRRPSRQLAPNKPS
row,SMILES,IC50
1,"CC(C)(O)COc1ccc2c(C(=O)NC3CC4(C3)CC(Oc3cc(-c5cnn(C6CC6)c5)ccc3C(N)=O)C4)cnn2c1 (stereo not shown) [Example 277, N-(6-(2-carbamoyl-5-(1-cyclopropyl-1H-pyrazol-4-yl)phenoxy)spiro[3.3]heptan-2-yl)-6-(2-hydroxy-2-methylpropoxy)pyrazolo[1,5-a]pyridine-3-carboxamide]",5 to 50 nM
2,"CC(C)(O)COc1ccc2c(C(=O)NC3CC4(C3)CC(Oc3cc(-c5cnn(C6CCOCC6)c5)ccc3C(N)=O)C4)cnn2c1 (stereo not shown) [Example 278, N-(6-(2-carbamoyl-5-(1-(tetrahydro-2H-pyran-4-yl)-1H-pyrazol-4-yl)phenoxy)spiro[3.3]heptan-2-yl)-6-(2-hydroxy-2-methylpropoxy)pyrazolo[1,5-a]pyridine-3-carboxamide]",5 to 50 nM
3,"CC(C)(O)COc1ccc2c(C(=O)NC3CC4(C3)CC(Oc3cc(-c5cnn(CC(C)(C)O)c5)ccc3C(N)=O)C4)cnn2c1 (stereo not shown) [Example 279, N-(6-(2-carbamoyl-5-(1-(2-hydroxy-2-methylpropyl)-1H-pyrazol-4-yl)phenoxy)spiro[3.3]heptan-2-yl)-6-(2-hydroxy-2-methylpropoxy)pyrazolo[1,5-a]pyridine-3-carboxamide]",5 to 50 nM
4,"CC(C)(O)COc1ccc2c(C(=O)NC3CC4(C3)CC(Oc3cc(-c5ccc(C(N)=O)c(F)c5)ccc3C(N)=O)C4)cnn2c1 (stereo not shown) [Example 280, 3-fluoro-3′-((6-(6-(2-hydroxy-2-methylpropoxy)pyrazolo[1,5-a]pyridine-3-carboxamido)spiro[3.3]heptan-2-yl)oxy)-[1,1′-biphenyl]-4,4′-dicarboxamide]",5 to 50 nM
5,"CC(C)(O)COc1ccc2c(C(=O)NC3CC4(C3)CC(Oc3cc(-c5ccc(CN6CCOCC6)s5)ccc3C(N)=O)C4)cnn2c1 (stereo not shown) [Example 281, N-(6-(2-carbamoyl-5-(5-(morpholinomethyl)thiophen-2-yl)phenoxy)spiro[3.3]heptan-2-yl)-6-(2-hydroxy-2-methylpropoxy)pyrazolo[1,5-a]pyridine-3-carboxamide]",5 to 50 nM

# The remaining lines, values ahead:
row,IC50,SMILES
1,5 to 50 nM,"CCOC(=O)Cc1cccc(-c2ccc(C(N)=O)c(OC3CC4(CC(NC(=O)c5cnn6cc(OCC(C)(C)O)ccc56)C4)C3)c2)c1 (stereo not shown) [Example 282, ethyl 2-(4′-carbamoyl-3′-((6-(6-(2-hydroxy-2-methylpropoxy)pyrazolo[1,5-a]pyridine-3-carboxamido)spiro[3.3]heptan-2-yl)oxy)-[1,1′-biphenyl]-3-yl)acetate]"
2,50 to 250 nM,"CC(C)(O)COc1ccc2c(C(=O)NC3CC4(C3)CC(Oc3cc(-c5cc(F)c(F)c(F)c5)ccc3C(N)=O)C4)cnn2c1 (stereo not shown) [Example 283, N-(6-((4-carbamoyl-3′,4′,5′-trifluoro-[1,1′-biphenyl]-3-yl)oxy)spiro[3.3]heptan-2-yl)-6-(2-hydroxy-2-methylpropoxy)pyrazolo[1,5-a]pyridine-3-carboxamide]"
3,< 5 nM,"CC(C)(O)COc1ccc2c(C(=O)NC3CC4(C3)CC(Oc3cc(-c5cccc(S(C)(=O)=O)c5)ccc3C(N)=O)C4)cnn2c1 (stereo not shown) [Example 284, N-(6-((4-carbamoyl-3′-(methylsulfonyl)-[1,1′-biphenyl]-3-yl)oxy)spiro[3.3]heptan-2-yl)-6-(2-hydroxy-2-methylpropoxy)pyrazolo[1,5-a]pyridine-3-carboxamide]"
4,5 to 50 nM,"CN(C)CCNC(=O)c1cccc(-c2ccc(C(N)=O)c(OC3CC4(CC(NC(=O)c5cnn6cc(OCC(C)(C)O)ccc56)C4)C3)c2)c1 (stereo not shown) [Example 285, N3-(2-(dimethylamino)ethyl)-3′-((6-(6-(2-hydroxy-2-methylpropoxy)pyrazolo[1,5-a]pyridine-3-carboxamido)spiro[3.3]heptan-2-yl)oxy)-[1,1′-biphenyl]-3,4′-dicarboxamide]"
5,5 to 50 nM,"CC(C)(O)COc1ccc2c(C(=O)NC3CC4(C3)CC(Oc3cc(-c5ccc(S(C)(=O)=O)cc5)ccc3C(N)=O)C4)cnn2c1 (stereo not shown) [Example 286, N-(6-((4-carbamoyl-4′-(methylsulfonyl)-[1,1′-biphenyl]-3-yl)oxy)spiro[3.3]heptan-2-yl)-6-(2-hydroxy-2-methylpropoxy)pyrazolo[1,5-a]pyridine-3-carboxamide]"
